Test results from paper PMC11845477, “Exploring the principles behind antibiotics with limited resistance” (Nature Communications, 2025).

Legend:
[1] = system: A. baumannii ATCC 17978 (SEN) and A. baumannii ATCC BAA-1605 (MDR); experiment: Frequency-of-resistance (FoR) assay, relative MIC of mutants; type: cell-based, Acinetobacter baumannii
In short: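 First-step resistance is selected by exposing roughly 10^10 cells to each antibiotic on agar for 48 h at 37 °C. Ten colonies from the highest selective concentration then undergo MIC testing by OD600 in MHB, reported relative to the ancestral strain.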

[2] = system: K. pneumoniae ATCC 10031 (SEN) and K. pneumoniae ATCC 700603 (MDR); experiment: Adaptive laboratory evolution (ALE), relative MIC of evolved lines; type: cell-based, Klebsiella pneumoniae
In short: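 Ten parallel populations per antibiotic–ancestor pair were evolved in MHB at 37 °C, starting near 50% growth-inhibiting drug. Every 72 h they were passaged into 0.5–2.5× increasing concentrations, keeping the highest-drug well with OD600 > 0.2.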

[3] = Acinetobacter baumannii ATCC 17978 (AB-SEN), evolved line 1
[4] = Acinetobacter baumannii ATCC 17978 (AB-SEN), evolved line 2
[5] = Acinetobacter baumannii ATCC 17978 (AB-SEN), evolved line 3
[6] = KP-SEN (K. pneumoniae ATCC 10031), evolved line 1 of the given antibiotic
[7] = KP-SEN (K. pneumoniae ATCC 10031), evolved line 2 of the given antibiotic
[8] = KP-SEN (K. pneumoniae ATCC 10031), evolved line 3 of the given antibiotic
[9] = KP-SEN (K. pneumoniae ATCC 10031), evolved line 4 of the given antibiotic
[10] = KP-SEN (K. pneumoniae ATCC 10031), evolved line 5 of the given antibiotic
[11] = KP-SEN (K. pneumoniae ATCC 10031), evolved line 8 of the given antibiotic
[12] = KP-SEN (K. pneumoniae ATCC 10031), evolved line 9 of the given antibiotic
[13] = KP-SEN (K. pneumoniae ATCC 10031), evolved line 10 of the given antibiotic

C[C@@H](O)[C@H]1C(=O)N2C(C(=O)O)=C(S[C@H]3CC[S@@+]([O-])C3)S[C@H]12 [Sulopenem]
MIC of evolved line [1, 3]: 4 µg/mL
MIC of evolved line [1, 4]: 4 µg/mL
MIC of evolved line [1, 5]: 4 µg/mL
Relative MIC ([1]; Acinetobacter baumannii ATCC 17978 (AB-SEN), evolved line 1 versus ancestor): 4
Relative MIC ([1]; Acinetobacter baumannii ATCC 17978 (AB-SEN), evolved line 2 versus ancestor): 4
Relative MIC ([1]; Acinetobacter baumannii ATCC 17978 (AB-SEN), evolved line 3 versus ancestor): 4
MIC of evolved line ([2]; KP-MDR (K. pneumoniae ATCC 700603), evolved line 1 of the given antibiotic): 128 µg/mL
Relative MIC ([2]; KP-MDR (K. pneumoniae ATCC 700603), evolved line 1 vs ancestor): 256
MIC of evolved line ([2]; KP-MDR (K. pneumoniae ATCC 700603), evolved line 3 of the given antibiotic): 128 µg/mL
Relative MIC ([2]; KP-MDR (K. pneumoniae ATCC 700603), evolved line 3 vs ancestor): 256
MIC of evolved line ([2]; KP-MDR (K. pneumoniae ATCC 700603), evolved line 4 of the given antibiotic): 128 µg/mL
Relative MIC ([2]; KP-MDR (K. pneumoniae ATCC 700603), evolved line 4 vs ancestor): 256
MIC of evolved line ([2]; KP-MDR (K. pneumoniae ATCC 700603), evolved line 5 of the given antibiotic): 128 µg/mL
Relative MIC ([2]; KP-MDR (K. pneumoniae ATCC 700603), evolved line 5 vs ancestor): 256
MIC of evolved line ([2]; KP-MDR (K. pneumoniae ATCC 700603), evolved line 8 of the given antibiotic): 128 µg/mL
Relative MIC ([2]; KP-MDR (K. pneumoniae ATCC 700603), evolved line 8 vs ancestor): 256
MIC of evolved line ([2]; KP-MDR (K. pneumoniae ATCC 700603), evolved line 9 of the given antibiotic): 128 µg/mL
Relative MIC ([2]; KP-MDR (K. pneumoniae ATCC 700603), evolved line 9 vs ancestor): 256
MIC of evolved line ([2]; KP-MDR (K. pneumoniae ATCC 700603), evolved line 10 of the given antibiotic): 128 µg/mL
Relative MIC ([2]; KP-MDR (K. pneumoniae ATCC 700603), evolved line 10 vs ancestor): 256
Relative MIC (log10) ([2]; KP-MDR (Klebsiella pneumoniae ATCC 700603), evolved line 1): 2.408 log10
Relative MIC (log10) ([2]; KP-MDR (Klebsiella pneumoniae ATCC 700603), evolved line 3): 2.408 log10
Relative MIC (log10) ([2]; KP-MDR (Klebsiella pneumoniae ATCC 700603), evolved line 4): 2.408 log10
Relative MIC (log10) ([2]; KP-MDR (Klebsiella pneumoniae ATCC 700603), evolved line 8): 2.408 log10
Relative MIC (log10) ([2]; KP-MDR (Klebsiella pneumoniae ATCC 700603), evolved line 9): 2.408 log10
MIC of evolved line [2, 6]: 1 µg/mL
Relative MIC ([2]; KP-SEN (K. pneumoniae ATCC 10031), evolved line 1 vs ancestor): 32
MIC of evolved line [2, 7]: 1 µg/mL
Relative MIC ([2]; KP-SEN (K. pneumoniae ATCC 10031), evolved line 2 vs ancestor): 32
MIC of evolved line [2, 8]: 0.25 µg/mL
Relative MIC ([2]; KP-SEN (K. pneumoniae ATCC 10031), evolved line 3 vs ancestor): 8
MIC of evolved line [2, 9]: 0.5 µg/mL
Relative MIC ([2]; KP-SEN (K. pneumoniae ATCC 10031), evolved line 4 vs ancestor): 16
MIC of evolved line [2, 10]: 0.5 µg/mL
Relative MIC ([2]; KP-SEN (K. pneumoniae ATCC 10031), evolved line 5 vs ancestor): 16
MIC of evolved line ([2]; KP-SEN (K. pneumoniae ATCC 10031), evolved line 6 of the given antibiotic): 1 µg/mL
Relative MIC ([2]; KP-SEN (K. pneumoniae ATCC 10031), evolved line 6 vs ancestor): 32
MIC of evolved line [2, 11]: 1 µg/mL
Relative MIC ([2]; KP-SEN (K. pneumoniae ATCC 10031), evolved line 8 vs ancestor): 32
MIC of evolved line [2, 12]: 0.5 µg/mL
Relative MIC ([2]; KP-SEN (K. pneumoniae ATCC 10031), evolved line 9 vs ancestor): 16
MIC of evolved line [2, 13]: 1 µg/mL
Relative MIC ([2]; KP-SEN (K. pneumoniae ATCC 10031), evolved line 10 vs ancestor): 32
Relative MIC (log10) ([2]; KP-SEN (Klebsiella pneumoniae ATCC 10031), evolved line 1): 1.505 log10
Relative MIC (log10) ([2]; KP-SEN (Klebsiella pneumoniae ATCC 10031), evolved line 2): 1.505 log10
Relative MIC (log10) ([2]; KP-SEN (Klebsiella pneumoniae ATCC 10031), evolved line 6): 1.505 log10
Relative MIC (log10) ([2]; KP-SEN (Klebsiella pneumoniae ATCC 10031), evolved line 8): 1.505 log10
Relative MIC (log10) ([2]; KP-SEN (Klebsiella pneumoniae ATCC 10031), evolved line 10): 1.505 log10
Relative MIC ([2]; Klebsiella pneumoniae ATCC 10031 (KP-SEN), evolved line 1): 32
Relative MIC ([2]; Klebsiella pneumoniae ATCC 10031 (KP-SEN), evolved line 2): 32
Relative MIC ([2]; Klebsiella pneumoniae ATCC 10031 (KP-SEN), evolved line 3): 8
Relative MIC ([2]; Klebsiella pneumoniae ATCC 10031 (KP-SEN), evolved line 4): 16
Relative MIC ([2]; Klebsiella pneumoniae ATCC 10031 (KP-SEN), evolved line 5): 16
Relative MIC ([2]; Klebsiella pneumoniae ATCC 10031 (KP-SEN), evolved line 6): 32
Relative MIC ([2]; Klebsiella pneumoniae ATCC 10031 (KP-SEN), evolved line 8): 32
Relative MIC ([2]; Klebsiella pneumoniae ATCC 10031 (KP-SEN), evolved line 9): 16
Relative MIC ([2]; Klebsiella pneumoniae ATCC 10031 (KP-SEN), evolved line 10): 32
Relative MIC ([2]; Klebsiella pneumoniae ATCC 700603 (KP-MDR), evolved line 1): 256
Relative MIC ([2]; Klebsiella pneumoniae ATCC 700603 (KP-MDR), evolved line 3): 256
Relative MIC ([2]; Klebsiella pneumoniae ATCC 700603 (KP-MDR), evolved line 4): 256
Relative MIC ([2]; Klebsiella pneumoniae ATCC 700603 (KP-MDR), evolved line 5): 256
Relative MIC ([2]; Klebsiella pneumoniae ATCC 700603 (KP-MDR), evolved line 8): 256
Relative MIC ([2]; Klebsiella pneumoniae ATCC 700603 (KP-MDR), evolved line 9): 256
Relative MIC ([2]; Klebsiella pneumoniae ATCC 700603 (KP-MDR), evolved line 10): 256

polymyxin-B
MIC of evolved line [1, 3]: 0.5 µg/mL
MIC of evolved line [1, 4]: 0.5 µg/mL
MIC of evolved line [1, 5]: 0.5 µg/mL
MIC of evolved line ([1]; Acinetobacter baumannii ATCC BAA 1605 (AB-MDR), evolved line 3): 16 µg/mL
MIC of evolved line ([2]; KP-MDR ATCC 700603, evolved line 1): 512 µg/mL
MIC of evolved line ([2]; KP-MDR ATCC 700603, evolved line 2): 512 µg/mL
MIC of evolved line ([2]; KP-MDR ATCC 700603, evolved line 3): 256 µg/mL
MIC of evolved line ([2]; KP-MDR ATCC 700603, evolved line 4): 256 µg/mL
MIC of evolved line ([2]; KP-MDR ATCC 700603, evolved line 5): 256 µg/mL
MIC of evolved line ([2]; KP-MDR ATCC 700603, evolved line 6): 256 µg/mL
MIC of evolved line ([2]; KP-MDR ATCC 700603, evolved line 7): 256 µg/mL
MIC of evolved line ([2]; KP-MDR ATCC 700603, evolved line 8): 512 µg/mL
MIC of evolved line ([2]; KP-MDR ATCC 700603, evolved line 9): 256 µg/mL
MIC of evolved line ([2]; KP-MDR ATCC 700603, evolved line 10): 256 µg/mL
MIC of evolved line [2, 6]: 512 µg/mL
MIC of evolved line [2, 7]: 1020 µg/mL
MIC of evolved line [2, 8]: 1020 µg/mL
MIC of evolved line [2, 9]: 256 µg/mL
MIC of evolved line [2, 10]: 1020 µg/mL
MIC of evolved line ([2]; KP-SEN (K. pneumoniae ATCC 10031), evolved line 7 of the given antibiotic): 256 µg/mL
MIC of evolved line [2, 11]: 256 µg/mL
MIC of evolved line [2, 12]: 1020 µg/mL
MIC of evolved line [2, 13]: 32 µg/mL
